ChEMBL document CHEMBL2390838, “Structure-based identification of ureas as novel nicotinamide phosphoribosyltransferase (Nampt) inhibitors” (J Med Chem, 2013)

Legend:
Assay type in all cases: ADME, organism-based
[1] = AUC(infinity) in BALB/c mouse at 5 mg/kg, po; set-up: time infinity, dose 5 mg/kg, route oral; conditions: plasma
[2] = Cmax in BALB/c mouse at 1 mg/kg, iv; set-up: dose 1 mg/kg, route intravenous; conditions: in vivo
[3] = Cmax in BALB/c mouse at 5 mg/kg, po; set-up: dose 5 mg/kg, route oral; conditions: in vivo
[4] = Oral bioavailability in BALB/c mouse at 5 mg/kg; conditions: in vivo
[5] = AUC(infinity) in BALB/c mouse at 1 mg/kg, iv; set-up: time infinity, dose 1 mg/kg, route intravenous; conditions: plasma
[6] = Tmax in BALB/c mouse at 5 mg/kg, po; set-up: dose 5 mg/kg, route oral; conditions: in vivo
[7] = Tmax in BALB/c mouse at 1 mg/kg, iv; set-up: dose 1 mg/kg, route intravenous; conditions: in vivo
[8] = Volume of distribution at steady state in BALB/c mouse at 1 mg/kg, iv; set-up: dose 1 mg/kg, route intravenous; conditions: in vivo, read-out: Vdss

AUC(0-inf) [1]: 1.4 µM·h | Cmax [2]: 2700 nM | Cmax [3]: 1100 nM | bioavailability [4]: 26% | AUC(0-inf) [5]: 0.92 µM·h | Tmax [6]: 30 min | Tmax [7]: 4.8 min | Vd [8]: 1.1 L/kg
Compound: O=C(NCc1cccnc1)Nc1ccc(S(=O)(=O)N2CC3CCC(C2)O3)cc1
